Assay results published in patent US6924302B2, “Substituted triazole diamine derivatives as kinase inhibitors” (Ortho McNeil Pharmaceutical, Inc., priority 2000, dated 2005).
Like-named read-outs stand apart in the source and are kept apart here.

Assays:
[1] = biological target: T1, CDK2 in complex with cyclin A (Homo sapiens, UniProt P24941); assay: Kinase Selectivity Assay CDK2; format: biochemical; conditions: Table 1
T1 construct: purchased Upstate Biotech
Outline: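 Biotinylated peptide phosphorylation measured as ^33P-γ-ATP incorporation on streptavidin plates after 1 h at 30° C, 1% DMSO final, enzyme in 50 mM Tris-HCl pH 8.0, 0.1% BSA. Compounds in duplicate at 8 concentrations, 100 uM to 10 pM. IC50 from percent inhibition versus log concentration.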

[2] = tested on: SK-OV-3 ovarian adenocarcinoma; assay: Inhibition of Cell Proliferation (14C-thymidine incorporation), SK-OV-3; format: cell-based; conditions: Homo sapiens, SK-OV-3 cell line
Procedure: The ability of a test compound to inhibit the proliferation of cell growth was determined by measuring incorporation of ^14C-labelled thymidine into newly synthesized DNA within the cells. […] Cells were trypsinized and counted and 3000-8000 cells were added to each well of a 96-well CytoStar tissue culture treated scintillating microplate (Amersham #RPNQ0160) in complete medium in a volume of 100 μl. Cells were incubated for 24 hours in complete medium at 37° C. in an atmosphere containing 5% CO2. Next, 1 μl of test compound in 100% DMSO was added to the wells of the plate. DMSO only was added to control wells. Cells were incubated for 24 more hours in complete medium at 37° C. in an atmosphere containing 5% CO2. […] The plate was incubated for 24 hours at 37° C. plus 5% CO2 in drug plus ^14C-thymidine. The contents of the plate were discarded into a ^14C radioactive waste container by inverting the plate and the plate was washed twice with 200 μl PBS. 200 μl of PBS is added to each well. […] The degree of methyl ^14C-thymidine incorporation was quantified on a Packard Top Count.

[3] = tested on: PC-3 prostate adenocarcinoma; assay: Inhibition of Cell Proliferation (14C-thymidine incorporation), PC-3; format: cell-based; conditions: Homo sapiens, PC-3 cell line
Outline: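 Cells seeded 3000–8000 per well on scintillating plates, grown 24 h, then exposed to compound in DMSO for 24 h before 0.2 μCi/well methyl-14C-thymidine was added for a further 24 h with drug, 37° C., 5% CO2. Proliferation measured as thymidine incorporation into DNA by scintillation counting after PBS washes.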

FGF-R2 = FGF-R2 (Homo sapiens, UniProt P21802); assay: Kinase Selectivity Assay FGF-R2; format: biochemical; conditions: Tables 2a-2k
Sequence of FGF-R2 (P21802 22-821, species assumed): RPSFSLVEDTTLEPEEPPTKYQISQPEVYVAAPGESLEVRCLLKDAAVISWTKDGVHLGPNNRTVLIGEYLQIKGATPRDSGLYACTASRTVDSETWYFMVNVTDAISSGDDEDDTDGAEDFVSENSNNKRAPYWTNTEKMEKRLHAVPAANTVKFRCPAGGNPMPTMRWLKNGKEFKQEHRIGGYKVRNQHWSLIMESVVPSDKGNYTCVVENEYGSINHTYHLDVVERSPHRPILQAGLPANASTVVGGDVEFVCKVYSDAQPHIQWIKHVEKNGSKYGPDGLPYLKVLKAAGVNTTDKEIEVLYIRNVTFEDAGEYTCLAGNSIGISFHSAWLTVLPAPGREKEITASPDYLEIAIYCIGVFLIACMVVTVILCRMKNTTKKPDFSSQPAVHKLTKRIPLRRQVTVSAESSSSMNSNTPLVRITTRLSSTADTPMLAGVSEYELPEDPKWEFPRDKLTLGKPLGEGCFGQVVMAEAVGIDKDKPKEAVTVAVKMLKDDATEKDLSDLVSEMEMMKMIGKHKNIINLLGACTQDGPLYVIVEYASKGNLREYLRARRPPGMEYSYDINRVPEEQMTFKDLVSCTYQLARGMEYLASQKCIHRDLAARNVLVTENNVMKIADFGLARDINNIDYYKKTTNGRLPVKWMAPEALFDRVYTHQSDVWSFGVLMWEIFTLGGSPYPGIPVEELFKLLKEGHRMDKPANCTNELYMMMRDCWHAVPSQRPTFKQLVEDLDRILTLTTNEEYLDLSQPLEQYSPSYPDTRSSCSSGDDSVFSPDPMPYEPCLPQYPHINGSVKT
Procedure: Assays to test compound inhibition of other kinases were preformed using methods that measure the amount of phosphorylation of a biotinylated peptide substrate. Biotinylated peptide substrates were selected from the literature as appropriate for the enzyme being evaluated. […] Assay conditions vary slightly for each protein kinase, for example, insulin receptor kinase requires 10 mM MnCl2 for activity and Calmodulin-dependent protein kinase requires calmodulin and 10 mM CaCl2. These assay conditions are known in the art. The reaction mixture was dispensed into the wells of a streptavidin coated Flashplate and 1 μl drug stock in 100% DMSO was added to a 100 μl reaction volume resulting in a final concentration of 1% DMSO on the reaction. Enzyme was diluted in 50 mM Tris-HCl pH=8.0, 0.1% BSA and add to each well. The reaction was incubated for one hour at 30° C. in the presence of compound. After one hour the reaction mix was aspirated from the plate and the plate was washed with PBS containing 100 mM EDTA. The plate was read on a scintillation counter to determine ^33P-γ-ATP incorporated into the immobilized peptide. Test compounds were assayed in duplicate at 8 concentrations [100 uM, 10 uM, 1 uM, 100 nM, 10 nM, 1 nM, 100 pM, 10 pM]. A maximum and minimum signal for the assay was determined on each plate. The IC50 was calculated from the dose response curve of the percent inhibition of the maximum signal in the assay according to the formula [max signal—background/test compound signal—background (100)=% inhibition] by graphing the percent inhibition against the log concentration of test compound. Known inhibitor compounds appropriate for the kinase being assayed were also included on each plate.

[4] = biological target: T2, VEGF-R (vascular endothelial growth factor receptor-2) (Rattus norvegicus, UniProt O08775); assay: VEGF-R Screening Assay; format: biochemical; conditions: read-out: VEGF-R IC50
T2 construct: polyhistidine (6xHIS) (N)
T2 sequence (O08775 786-1343): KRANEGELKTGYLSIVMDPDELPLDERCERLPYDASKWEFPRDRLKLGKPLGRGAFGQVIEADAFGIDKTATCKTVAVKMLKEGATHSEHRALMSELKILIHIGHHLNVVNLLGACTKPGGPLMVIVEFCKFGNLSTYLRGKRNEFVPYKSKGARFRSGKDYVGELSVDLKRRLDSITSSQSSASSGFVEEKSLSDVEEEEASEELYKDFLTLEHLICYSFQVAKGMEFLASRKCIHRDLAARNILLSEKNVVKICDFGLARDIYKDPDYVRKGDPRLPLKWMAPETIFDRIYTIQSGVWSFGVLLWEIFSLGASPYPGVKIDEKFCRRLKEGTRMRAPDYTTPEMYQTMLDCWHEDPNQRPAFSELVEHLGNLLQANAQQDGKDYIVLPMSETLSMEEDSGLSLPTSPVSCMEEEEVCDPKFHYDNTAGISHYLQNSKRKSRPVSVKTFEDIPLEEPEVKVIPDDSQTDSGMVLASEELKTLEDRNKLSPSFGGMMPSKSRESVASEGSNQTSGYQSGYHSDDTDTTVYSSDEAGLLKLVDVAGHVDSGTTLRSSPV

[5] = Kinase Selectivity, Tables 2a-2k

Row | SMILES | IC50 [1] [nM] | IC50 [2] [nM] | IC50 [3] [nM] | IC50 (FGF-R2) [nM] | IC50 [4, 5] [nM] | IC50 ([4]; Table 1) [nM]
1 | CNS(=O)(=O)c1ccc(Nc2nc(N)n(C(=O)c3c(F)ccc(C)c3F)n2)cc1 [Cpd 81, 4-[[5-amino-1-(2,6-difluoro-3-methylbenzoyl)-1H-1,2,4-triazol-3-yl]amino]-N-methyl-benzenesulfonamide] | 1 | 348 | 25 | 268 |  | 
2 | Nc1nc(Nc2ccc(S(N)(=O)=O)cc2)nn1C(=O)c1ccsc1 [Cpd 30, 4-[[5-amino-1-(3-thienylcarbonyl)-1H-1,2,4-triazol-3-yl]amino]-benzenesulfonamide] |  | 5750 | 951 |  | 40.6 | 40.6
3 | Nc1nc(Nc2ccc(S(N)(=O)=O)cc2)nn1C(=O)c1sccc1F [Cpd 16, 4-[[5-amino-1-[(3-fluoro-2-thienyl)carbonyl]-1H-1,2,4-triazol-3-yl]amino]-benzenesulfonamide] |  | 2110 | 368 |  | 13.7 | 13.7
4 | CCc1ccc(C(=O)n2nc(Nc3ccc(S(=O)(=O)NC)cc3)nc2N)s1 [Cpd 84, 4-[[5-amino-1-[(5-ethyl-2-thienyl)carbonyl]-1H-1,2,4-triazol-3-yl]amino]-N-methyl-benzenesulfonamide] |  | 461 | 23 | 300 |  | 
5 | Nc1nc(Nc2ccc(S(N)(=O)=O)cc2)nn1C(=O)c1cccs1 [Cpd 14, 4-[[5-amino-1-(2-thienylcarbonyl)-1H-1,2,4-triazol-3-yl]amino]-benzenesulfonamide] |  | 727 | 157 | 27 | 26 | 26.7
6 | CNS(=O)(=O)c1ccc(Nc2nc(N)n(C(=O)c3c(F)cccc3F)n2)cc1 [Cpd 80, 4-[[5-amino-1-(2,6-difluorobenzoyl)-1H-1,2,4-triazol-3-yl]amino]-N-methyl-benzenesulfonamide] |  | 16300 | 272 |  |  | 935
7 | CNS(=O)(=O)c1ccc(Nc2nc(N)n(C(=O)c3sccc3C)n2)cc1 [Cpd 82, 4-[[5-amino-1-[(3-methyl-2-thienyl)carbonyl]-1H-1,2,4-triazol-3-yl]amino]-N-methyl-benzenesulfonamide] |  | 921 | 15 | 89 |  | 
